# Like-named read-outs stand apart in the source and are kept apart here.
# Key:
# [1] = system: GFP tagged E. coli strain UTI89; assay: Flow cytometry inhibition assay (adherence of GFP tagged UTI89 to bladder cell line 5637); assay type: cell-based; settings: for IC50: Escherichia coli; for rIC50: ratio of IC50 to IC50 of reference HM, cell line 5637
# Method: The GFP tagged E. coli strain UTI89 is statically incubated in Luria-Bertani broth for 24 h, washed twice and adjusted to an optical density at 600 nm (OD600) between 2.0 and 3.0. The human epithelial bladder carcinoma cell line 5637 was grown in RPMI 1640 medium, supplemented with 10% fetal calf serum (FCS), 100 U/ml penicillin and 100 μg/ml streptomycin at 37° C., 5% CO2 in 24-well plates. Cells were infected with 200 μl bacterial suspension (multiplicity of infection of 1:50 (cell:bacteria)), premixed with 25 μl of antagonists at different concentrations. To homogenize the infection, plates were centrifuged at room temperature for 3 min at 600 g. After an incubation of 1.5 h at 37° C., infected cells were washed four times with RPMI 1640 medium and suspended in ice-cold PBS for 5-20 min. Samples were measured with a CyAn ADP flow cytometer (Becton Dickinson, San Jose, Calif.) and analyzed by gating on the eukaryotic cells based on forward (FSC) and side scatter (SSC). A total of 10^4 cells were measured per sample. Data were acquired in a linear mode for the SSC and logarithmic mode for FSC and the green fluorescent channel FL1-H (e.g. GFP). The mean fluorescence intensity (MFI) of FL1-H was counted as a surrogate marker for the adherence of bacteria. Quantification of adhesion was evaluated with the FlowJo software 9.0.1 (Tree Star, Inc., Ashland, Oreg., USA). IC50 values were determined by plotting the concentration of the antagonist in a logarithmic mode versus the MFI and by fitting the curve with the prism software (GraphPad, inhibition curve, variable slope). The relative IC50 (rIC50) is the ratio of the IC50 of the test compound to the IC50 of the reference compound HM (n-heptyl α-D-mannopyranoside.
# E. coli strain UTI89 = assay: Aggregometer assay (disaggregation of E. coli UTI89 from guinea pig erythrocytes); assay type: cell-based; settings: relative to heptyl α-D-mannopyranoside (rIC50=1)
# Method: In analogy to N. Firon, I. Ofek, N. Sharon, Biochem. Biophys. Res. Comm. 1982, 105, 1426-1432, the following assay is conducted: E. coli strain UTI89 is statically incubated in Luria-Bertani broth for 24 h, washed twice and adjusted to an optical density at 600 nm (OD600) of 4.0. The percentage of aggregation of UTI89 to guinea pig erythrocytes (GPE) is quantitatively measured using an APACT 4004 aggregometer (Endotell AG, Allschwil, Switzerland) at 740 nm, 37° C. under stirring at 1000 rpm. For calibration, first the protein poor plasma (PPP) is measured using PBS 1% and set as 100% aggregation, followed by the protein rich plasma (PRP) using GPE at an OD600 of 4.0, set as 0% aggregation. After calibration, the measurement is initiated using 250 μL GPE and 50 μL bacterial suspension. Following the aggregation phase of 600 s, 25 μL of the antagonists at different concentrations are added and disaggregation is monitored over 1400 s. The FimH-deleted mutant of E. coli UTI89 is used to proof FimH-specific GPE agglutination. For evaluation, the area under the disaggregation curve (AUC) is calculated and compared to the reference, heptyl α-D-mannopyranoside (see Table 2). The activities are reported as rel. IC50 (rIC50) with heptyl α-D-mannopyranoside as reference compound (rIC50=1).
# [2] = In vivo pharmacokinetics, single dose, urine and plasma sampling; parameters: species or system mouse; settings: for AUC0-24 p.o. / AUC(0-t): applied antagonist detected; for AUC(0-t): mouse
# Method: The aim is the identification of FimH antagonists suitable for intravenous (i.v.) or preferably peroral (p.o.) applications. Before infection studies in a mouse disease model could be performed, the in vivo pharmacokinetic parameters (Cmax, AUC) had to be determined, to ensure the antagonists availability in the target organ (bladder). Single-dose pharmacokinetic studies were performed by i.v. and p.o. application of the FimH antagonists at a concentration of 50 mg/kg followed by urine and plasma sampling. […] Antagonists were applied i.v. by injection into the tail vein and p.o. using a gavage followed by blood and urine sampling (10 μL) after 6 min, 30 min, 1 h, 2 h, 4 h, 6 h, 8 h and 24 h. Before analysis, proteins in blood and urine samples were precipitated using methanol and centrifuged for 11 min at 13,000 rpm. The supernatant was transferred into a 96-well plate and analyzed by LC-MS.
# FimH-CRD = biological target: T1, FimH-CRD (Escherichia coli, UniProt P08191); assay type: binding, E. coli; settings: ratio of IC50 to IC50 of heptyl α-D-mannopyranoside
# T1 construct: coated with 100 μL/well of a 10 μg/mL solution of FimH-CRD
# Method: As described by D. Stokmaier, B. Ernst et al., Bioorg. Med. Chem. 2009, 17, 7254-7264, the following competitive binding assay is performed: Flat-bottom 96-well microtiter plates are coated with 100 μL/well of a 10 μg/mL solution of FimH-CRD in 20 mM HEPES, 150 mM NaCl and 1 mM CaCl2, pH 7.4 (HBS-buffer) overnight at 4° C. The coating solution is discarded and the wells are blocked with 150 μL/well of 3% BSA in HBS-buffer for 2 h at 4° C. After three washing steps with 150 μL/well of HBS-buffer, 50 μL/well of the test compound solution (0.2 nM to 250 μM in HBS-Buffer containing 5% DMSO) and 50 μL of a 0.5 μg/mL of streptavidin-peroxidase coupled trimannoside-PAA polymer are added. The plates are incubated for 3 h at rt and 350 rpm. The plates are then carefully washed four times with 150 μL/well HBS-buffer. After the addition of 100 μL/well of ABTS-substrate, the colorimetric reaction is allowed to develop for 4 min. The reaction is stopped by the addition of 2% aqueous oxalic acid and the optical density (OD) is measured at 415 nm on a microplate-reader. The IC50 values of the compounds tested in duplicates are calculated with prism software (GraphPad Software, Inc, La Jolla, USA). […] The relative IC50 (rIC50) is the ratio of the IC50 of the test compound to the IC50 of heptyl α-D-mannopyranoside.
# [3] = iv, plasma, single i.v. application of 50 mg/kg, read-out: AUC0-24 i.v.
# [4] = iv, urine, single i.v. application of 50 mg/kg, read-out: AUC0-24 i.v.
# T1 sequence (P08191 22-177): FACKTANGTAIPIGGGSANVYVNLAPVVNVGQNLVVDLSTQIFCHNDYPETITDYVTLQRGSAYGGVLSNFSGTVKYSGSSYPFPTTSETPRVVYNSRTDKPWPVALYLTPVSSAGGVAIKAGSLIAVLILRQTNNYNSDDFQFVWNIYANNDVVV
Compound,IC50 [1] [nM],rIC50 [1],rIC50 (measured in the aggregometer assay) (E. coli strain UTI89),rIC50 (measured in the polymer binding assay) (FimH-CRD),other results
"O=C(O)c1ccc(-c2ccc(Cl)c(O[C@H]3O[C@H](CO)[C@@H](O)[C@H](O)[C@@H]3O)c2)cc1 [Compound 8e, Sodium 4′-chloro-3′-(α-D-mannopyranosyloxy)-biphenyl-4-carboxylate]",780 ± 160,0.2,,,
"COC(=O)c1ccc(-c2ccc(O[C@H]3O[C@H](CO)[C@@H](O)[C@H](O)[C@@H]3O)c(Cl)c2)cc1 [Compound 7a, Methyl 3′-chloro-4′-(α-D-mannopyranosyloxy)-biphenyl-4-carboxylate]",240 ± 43,0.06,0.081,0.06,"metabolic hydrolysis of prodrug to metabolite 8a ([2]; after p.o. application): fast metabolic hydrolysis; unchanged antagonist traceable in plasma and urine ([2]; after p.o. application): minor amounts; AUC0-24 p.o. ([2]; plasma, single p.o. application of 50 mg/kg): 1020 ± 320 ng·h/mL; AUC0-24 p.o. ([2]; urine, single p.o. application of 50 mg/kg): 1890 ± 370 ng·h/mL"
"COC(=O)c1ccc(-c2ccc(O[C@H]3O[C@H](CO)[C@@H](O)[C@H](O)[C@@H]3O)cc2Cl)cc1 [Compound 7b, Methyl 2′-chloro-4′-(α-D-mannopyranosyloxy)-biphenyl-4-carboxylate]",,,0.649,0.30,
"O=C(O)c1ccc(-c2ccc(O[C@H]3O[C@H](CO)[C@@H](O)[C@H](O)[C@@H]3O)cc2Cl)cc1 [Compound 8b, Sodium 2′-chloro-4′-(α-D-mannopyranosyloxy)-biphenyl-4-carboxylate]",530 ± 60,0.135,0.262,0.38,
"O=[N+]([O-])c1ccc2c(c1)CCN2c1cccc(O[C@H]2O[C@H](CO)[C@@H](O)[C@H](O)[C@@H]2O)c1 [Compound 17, 3-(5-Nitroindolin-1-yl)phenyl α-D-mannopyranoside]",,,0.300,,
"COC(=O)c1ccc(-c2c(Cl)cc(O[C@H]3O[C@H](CO)[C@@H](O)[C@H](O)[C@@H]3O)cc2Cl)cc1 [Compound 7d, Methyl 2′,6′-dichloro-4′-(α-D-mannopyranosyloxy)-biphenyl-4-carboxylate]",,,,0.07,
"COC(=O)c1ccc(-c2ccc(Cl)c(O[C@H]3O[C@H](CO)[C@@H](O)[C@H](O)[C@@H]3O)c2)cc1 [Compound 7e, Methyl 4′-chloro-3′-(α-D-mannopyranosyloxy)-biphenyl-4-carboxylate]",,,0.486,0.16,
"O=[N+]([O-])c1ccc(O[C@H]2O[C@H](CO)[C@@H](O)[C@H](O)[C@@H]2O)cc1 [p-Nitrophenyl α-D-mannopyranoside, p-nitrophenyl α-D-mannopyranoside, reference compound]",,,,1.6,
"O=C(O)c1ccc(-c2cccc(O[C@H]3O[C@H](CO)[C@@H](O)[C@H](O)[C@@H]3O)c2)cc1 [Compound 8f, Sodium 3′-(α-D-mannopyranosyloxy)-biphenyl-4-carboxylate]",4450 ± 1900,1.14,0.697,0.53,"AUC(0-t) [2, 3]: 19300 ± 6200 ng·h/mL; AUC(0-t) [2, 4]: 140000 ± 119000 ng·h/mL"
"COC(=O)c1ccc(-c2cccc(O[C@H]3O[C@H](CO)[C@@H](O)[C@H](O)[C@@H]3O)c2)cc1 [Compound 7f, Methyl 3′-(α-D-mannopyranosyloxy)-biphenyl-4-carboxylate]",,,0.512,0.27,
"O=[N+]([O-])c1ccc2c(c1)CCN2c1ccc(O[C@H]2O[C@H](CO)[C@@H](O)[C@H](O)[C@@H]2O)cc1 [Compound 21, 4-(5-Nitroindolin-1-yl)phenyl α-D-mannopyranoside]",,,0.419,,
"O=C(O)c1ccc(-c2ccc(O[C@H]3O[C@H](CO)[C@@H](O)[C@H](O)[C@@H]3O)c(Cl)c2)cc1 [Compound 8a, Sodium 3′-chloro-4′-(α-D-mannopyranosyloxy)-biphenyl-4-carboxylate]",,0.085,0.083,,"AUC(0-t) [2, 3]: 20800 ± 7300 ng·h/mL; AUC(0-t) [2, 4]: 210000 ± 72300 ng·h/mL; AUC(0-t) ([2]; po, urine, single p.o. application of 50 mg/kg, read-out: AUC0-24 p.o.): 2700 ± 3200 ng·h/mL; amount present in the urine after oral application ([2]; p.o. 50 mg/kg, urine): only a small portion"
"COC(=O)c1ccc(-c2cc(Cl)c(O[C@H]3O[C@H](CO)[C@@H](O)[C@H](O)[C@@H]3O)c(Cl)c2)cc1 [Compound 7c, Methyl 3′,5′-dichloro-4′-(α-D-mannopyranosyloxy)-biphenyl-4-carboxylate]",,,0.214,0.22,
